Assay results: ChEMBL document CHEMBL5543121, “Drug Repurposing of ACT001 to Discover Novel Promising Sulfide Prodrugs with Improved Safety and Potent Activity for Neutrophil-Mediated Antifungal Immunotherapy” (J Med Chem, 2024)
The source made the active and inactive calls. No cut-off for these calls is given here.

How the values were obtained:
[1] = Cytotoxicity against mouse polymorphonuclear neutrophils assessed as cell viability at 20 uM incubated for 16 hrs; type: toxicity, cell-based; conditions: polymorphonuclear neutrophil
[2] = molecular target: Signal transducer and activator of transcription 3 (Homo sapiens, UniProt P40763); assay: Binding affinity to Cys542 residue of human recombinant STAT3 assessed as covalent modification by measuring mass shift by LC-MS/MS analysis
[3] = system: Polymorphonuclear neutrophil; assay: Inhibition of fungal curdlan induced PD-L1 protein expression in mouse polymorphonuclear neutrophils at 20 uM incubated for 16 hrs by ELISA; type: functional, cell-based

Sequence of Signal transducer and activator of transcription 3 (P40763 whole entry): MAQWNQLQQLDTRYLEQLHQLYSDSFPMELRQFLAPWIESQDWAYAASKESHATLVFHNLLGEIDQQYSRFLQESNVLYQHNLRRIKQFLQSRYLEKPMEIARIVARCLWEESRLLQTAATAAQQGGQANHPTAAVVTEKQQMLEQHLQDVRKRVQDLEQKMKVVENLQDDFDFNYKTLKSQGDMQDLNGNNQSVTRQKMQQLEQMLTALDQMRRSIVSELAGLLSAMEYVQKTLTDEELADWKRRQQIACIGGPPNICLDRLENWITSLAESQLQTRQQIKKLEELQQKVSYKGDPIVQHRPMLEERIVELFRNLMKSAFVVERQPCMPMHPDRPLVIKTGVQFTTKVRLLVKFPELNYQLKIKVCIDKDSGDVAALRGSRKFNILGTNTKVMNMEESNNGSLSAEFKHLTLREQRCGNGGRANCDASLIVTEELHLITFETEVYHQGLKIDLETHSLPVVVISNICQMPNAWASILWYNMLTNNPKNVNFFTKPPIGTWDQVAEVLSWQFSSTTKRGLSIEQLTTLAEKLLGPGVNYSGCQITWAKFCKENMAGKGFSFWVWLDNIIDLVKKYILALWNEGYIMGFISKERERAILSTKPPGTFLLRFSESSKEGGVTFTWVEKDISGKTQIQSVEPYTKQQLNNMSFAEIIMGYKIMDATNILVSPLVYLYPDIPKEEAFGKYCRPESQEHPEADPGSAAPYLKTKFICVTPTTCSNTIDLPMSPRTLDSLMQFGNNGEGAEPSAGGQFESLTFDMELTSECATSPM

Activity [2]: 265 Da
SMILES: C=C1C(=O)O[C@H]2[C@H]1CC[C@]1(C)O[C@@]13CC[C@@](C)(O)[C@H]23
Activity [1]: Non-Toxic
inhibition [3]: Active
